From the METLIN SMRT retention time set (Domingo-Almenara et al. 2019)

Assay: gradient 5% acetonitrile 3 min, to 50% in 2 min, to 85% in 15 min, held 3 min, 100 µL/min
Conditions: column: Zorbax Extend-C18 2.1 x 50 mm; eluents: water / acetonitrile, 0.1% formic acid
Outline: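 Mixtures of ~100 pure standards were chromatographed on a Zorbax Extend-C18 column (2.1 × 50 mm, 1.8 μm) at 100 μL/min using water and acetonitrile, each with 0.1% formic acid. Detection used a quadrupole time-of-flight mass spectrometer in positive and negative ionization mode, and data collection spanned 3 months. Retention time was obtained from adduct peaks picked computationally and each checked manually.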

RP-LC retention time | Compound
941 s | CCOC(=O)CCNC(=O)N1CCc2c([nH]c3ccccc23)C1c1ccccc1F (centres undefined)
765 s | CCS(=O)(=O)c1ccc(-c2ccc(NC(=O)c3ccc(Br)o3)cc2)nn1
802 s | CCCNC(=O)c1sc(Nc2ccc(Br)cn2)nc1C
960 s | CCCn1cc(S(=O)(=O)Nc2ccc(C)c(C)c2)c2cccnc21
738 s | CC(C)OCCCNC(=O)CN1C(=O)CCn2nc(-c3cn(C)c4ccccc34)cc21
665 s | CCn1c(C)c(CCC(=O)NCCOC)c(=O)n2nc(-c3ccccc3)nc12
769 s | COc1cccc(C(=O)N2CCC(C(=O)NCc3csc(-c4cccs4)n3)CC2)c1
954 s | O=C(NCc1ccco1)N1CCN(c2nc3ccccc3nc2C(F)(F)F)CC1
964 s | Cc1ccc(C(=O)NCc2nc(-c3ccc(-c4csc(C)n4)cc3)no2)cc1
683 s | CCCn1c(CCNC(=O)c2ccc(F)c(F)c2)nc2cccnc21
1000 s | COc1ccccc1C1(CNS(=O)(=O)c2ccc3c(c2)CCCC3)CCOCC1
604 s | Fc1cccc(CSc2ccc(-n3ccnc3)nn2)c1
940 s | CCn1c(=O)sc2cc(S(=O)(=O)N3CCC(C(=O)Nc4ccc(C)cc4)CC3)ccc21
1230 s | CCn1cc(-c2ccc(C)cc2)cc1C(=O)N1CCC(C)CC1
508 s | Cc1cnc(-c2cccnc2)n1CC1CNC1
725 s | COCCCNC(=O)CN1c2ccccc2NC2=C(C(=O)CC(C)(C)C2)C1c1ccco1 (centres undefined)
718 s | CN1C(=O)COc2cc(-c3noc(C(=O)NC4CC4)n3)ccc21
757 s | COc1ncc(C(=O)Nc2cccc(F)c2)c(C)n1
1160 s | COc1cc(C2CC(=O)c3c([nH]c(C(=O)OC4CCCCCC4)c3C)C2)cc(OC)c1OC (centres undefined)
667 s | COc1ccc2[nH]cc(CCNC(=O)c3c(-c4cccnc4)noc3C)c2c1
1090 s | O=C(c1ccc(Cl)s1)N1CC(c2nc(-c3cccc(C(F)(F)F)c3)no2)C1
918 s | COC(=O)C(C)N1CN(c2ccc(C)cc2)c2ncccc2S1(=O)=O (centres undefined)
655 s | COc1ccc(NC(=O)C2c3cc(OC)c(OC)cc3C(=O)N(C)C2c2cccnc2)c(OC)c1 (centres undefined)
765 s | COc1ccc(CCNC(=O)C2=C3CCCN3c3ccccc3S2(=O)=O)cc1OC

RP-LC retention time | Compound
716 s | Cc1cc(C(=O)NC2CC2)c2cccc(Cl)c2n1
1240 s | Cc1ccc(S(=O)(=O)N2CCc3nc(-c4ccccc4)ncc3C2)cc1Cl
767 s | CCN1C(=O)c2cccnc2Sc2cc(CNC(=O)Cc3ccccc3F)ccc21
1160 s | Cc1cc(C)cc(Nc2nc(C)cc3nn(CC(=O)N4CCC(C)CC4)c(=O)n23)c1
796 s | CCOc1ccc(N2CC(c3nnc(NC(=O)Cc4ccc(Cl)cc4)o3)CC2=O)cc1 (centres undefined)
602 s | Cc1ccc2[nH]cc(CCN3CC(C(=O)NCCN4CCOCC4)CC3=O)c2c1 (centres undefined)
941 s | Cc1ccc(C(=O)NCc2ccc3c(c2)CCCN3C(=O)C2CCC2)c(C)c1
674 s | COc1ccc(N2CCN(C(=O)c3cc4c(s3)CCN(C(C)=O)C4)CC2)cc1
848 s | O=C(CCc1conc1-c1ccc(F)cc1)NCc1ccc2c(c1)OCO2
746 s | O=C1CC(c2ccc(O)cc2)c2c(c(C(=O)O)cn2-c2cccc(C(F)(F)F)c2)N1 (centres undefined)
681 s | O=C(O)c1cccn2c(=O)c3cc(F)ccc3nc12
823 s | CCc1ccccc1S(=O)(=O)N1CCC(N(C(=O)COC)C2CCOCC2)CC1
606 s | CC1CCN(CCNC(=O)c2nnc(-c3ccc(S(=O)(=O)N(C)C)cc3)o2)CC1
752 s | CCC(=O)Nc1nc(-c2ccc3c(c2)N(C)C(=O)CO3)cs1
912 s | CCOc1ccc(-c2nc(C3CC(=O)N(c4ccc(OC)c(OC)c4)C3)no2)cc1 (centres undefined)
834 s | Cc1cc(C)cc(NC(=O)C2CCN(S(=O)(=O)c3ccc4c(c3)CCCC(=O)N4)CC2)c1
689 s | Cc1ccc(NC(=O)N2CCN(Cc3nc4ccccc4o3)CC2)cc1
921 s | O=C(CCc1nnc(C(=O)Nc2ccccc2)s1)NCCc1c[nH]c2ccc(Cl)cc12
1180 s | Cc1ccc(S(=O)(=O)N2CCC(C)CC2)cc1-c1nnc(-c2ccccc2)o1
954 s | CN(C1CCCCC1)S(=O)(=O)N1CCCC(C(=O)NCc2ccc3c(c2)OCO3)C1 (centres undefined)
687 s | O=C(NCc1ccccc1)c1csc(Nc2ccncn2)n1
733 s | O=C(CSc1nnnn1-c1cccc(C(F)(F)F)c1)N1CCOCC1
640 s | Cc1ccc2c(=O)c3c([nH]c2c1C)CCN(CC(=O)Nc1cccc(Cl)c1)C3
811 s | O=C(Nc1cccc(OCc2nnc(-c3ccc(Cl)cc3)o2)c1)c1cccnc1

The next lines start with the compound.

Compound | RP-LC retention time
COc1ccccc1NC(=O)N1CC(C)Oc2ccc(C)cc21 (centres undefined) | 1130 s
CN(C)c1cc(C(=O)NCc2ccncc2)nc2ccnn12 | 581 s
Cc1ccccc1NC(=O)C1CCN(S(=O)(=O)c2cc(C(=O)N3CCCC3)cs2)CC1 | 760 s
Cc1cc(NC(=O)C2CCc3nc(N4CCOCC4)ncc3C2)ccc1F (centres undefined) | 797 s
O=c1n(Cc2cccc(F)c2)nc2c(S(=O)(=O)N3CCN(c4ccc(F)cc4)CC3)cccn12 | 967 s
CCS(=O)(=O)N1C[C@@H](COC)[C@H](c2ccccn2)C1 | 585 s
CCOc1cc(-c2ccc(F)cc2)nc2ccc(NC(=O)C3CC3)cc12 | 721 s
Cc1ccc(CNC(=O)c2ccc(CN3CCN(Cc4ccc(F)cc4)C(=O)C3=O)cc2)o1 | 823 s
O=C(Nc1nc2ccccc2[nH]1)c1ccc(Br)cc1 | 710 s
CC(C)CN1CCn2cc(S(=O)(=O)Nc3ccc(F)cc3Cl)cc2C1=O | 838 s
CN(C)c1cccc(C(=O)N2CCCC2c2nc(-c3ccc(F)cc3)no2)c1 (centres undefined) | 985 s
CCN1CCN(CC2CCN(S(=O)(=O)c3ccc4c(c3)CCC4)CC2)CC1 | 624 s
O=C(CSc1ccc(N2CCCC(C(=O)NC3CC3)C2)nn1)Nc1ccc(F)cc1F (centres undefined) | 617 s
O=C(O)Cc1sc(NCc2ccccc2)nc1-c1ccccc1 | 681 s
CC(C)CC(=O)NCC12CCCC=C1N(C)C(=O)CC2 (centres undefined) | 726 s
COCc1cc(=O)n(CC(=O)NCc2ccc(F)cc2)c(N)n1 | 583 s
Cc1ccc(-c2nc3nc(C)cc(N4CCOCC4)n3n2)cc1 | 763 s
CSc1ccc(NC(=O)C2CC(=O)N(c3ccc4c(c3)CCN4C(C)=O)C2)cc1 (centres undefined) | 730 s
CCOC(=O)c1cc2c([nH]c1=O)CC(c1cccc(Cl)c1)CC2=O (centres undefined) | 770 s
Cc1cc2[nH]c(=O)[nH]c2cc1S(=O)(=O)N1CCN(Cc2ccccc2)CC1 | 548 s
COc1ccc(-c2nc3ncccn3c2Nc2ccc(C)cc2C)cc1 | 800 s

Compound | RP-LC retention time
COc1ccc(-c2csc(NC(=O)c3sc(C)nc3C)n2)cc1 | 886 s
O=C1CCN(C(=O)c2ccco2)CCCCCCN1 | 633 s
O=C(Nc1cc(C(F)(F)F)ccc1Cl)c1ccc2ncsc2c1 | 922 s
COc1cccc(NC(=O)C2CC(=O)N(c3n[nH]c4cccc(F)c34)C2)c1 (centres undefined) | 737 s
COc1ccc(S(=O)(=O)N2CCC(c3noc(-c4ccc(Cl)cc4)n3)CC2)cc1 | 1140 s
CCNc1cc(N2CCCC(CCC(=O)NC(C)c3cccs3)C2)ncn1 (centres undefined) | 661 s
Cc1ccc(C)c(-n2ccn(Cc3nc(-c4ccccc4)no3)c(=O)c2=O)c1 | 886 s
COc1ccccc1NC(=O)N1C[C@@H](F)C[C@H]1C(=O)N1CCc2ccccc2C1 | 828 s
CN(CC1CCOCC1)S(=O)(=O)Cc1ccccc1F | 786 s
CCOc1nc2ccccc2nc1N1CCCC(C(=O)NCC2CCCO2)C1 (centres undefined) | 934 s
COCCCNC(=O)C1CCN(c2nnc(-c3ccccc3)o2)CC1 | 659 s
Cc1ccc(C)c(NC(=O)N2CCC3(CC2)NC(=O)c2ccccc2N3C)c1 | 763 s
Cc1nn(C)c(C)c1CNC(=O)C1CCN(c2cnn(Cc3ccccc3)c(=O)c2)CC1 | 654 s
O=C(Cn1cccc1-c1nnc(-c2ccccc2)o1)N1CCN(c2ccc(F)cc2)CC1 | 996 s
Cc1ccccc1NC(=O)Cn1cnc2nc(N3CCCC(C(=O)NC4CC4)C3)sc2c1=O (centres undefined) | 644 s
C[C@H]1C/C=C/[C@H]2[C@@H]3O[C@]3(C)[C@@H](C)[C@H]3[C@H](Cc4ccccc4)NC(=O)[C@]32OC(=O)O/C=C/[C@](C)(O)C1=O | 870 s
O=C(NCc1cccc(Cl)c1)C1CCc2nc(N3CCOCC3)ncc2C1 (centres undefined) | 726 s
Cc1ccccc1-c1noc(Cc2nnc(-c3cc(F)cc(F)c3)o2)n1 | 1090 s
COc1ccc(C(C)NC(=O)c2nc(N(C)C)c3c(C)cc(C)nc3n2)cc1 (centres undefined) | 658 s
Cc1ccc(-n2c(=O)c3c(cc(C)n3C)n(CC(=O)Nc3cccc(C)c3)c2=O)cc1 | 905 s
